In patent US20230338609A1, “MEDICAL DEVICES AND MATERIALS COMPRISING BIODEGRADABLE POLYESTERS” (AMICOAT AS, priority 2020, published 2023):
Converted amounts (≈) assume the structure as drawn.

Legend:
[1] = tested on: Trichophyton mentagrophytes - G.R. Micro collection; type: cell-based
Description: (§1) Yeast and filamentous fungal MIC were performed in MOPS buffered RPMI 1640 medium (MOPS buffer obtained from Sigma Aldrich Ltd., RPMI 1640 obtained from Invitrogen Ltd, Paisley, Scotland). The yeast inocula were in the range 7.5×10^2-4×10^3 CFU/mL and the filamentous fungi approximately 8×10^3-1×10^5 CFU/mL

[2] = tested on: Candida tropicalis ATCC750 - reference strain; type: cell-based
Description: as §1

[3] = tested on: Cryptococcus neoformans - G.R. Micro collection; type: cell-based
Description: as §1

[4] = tested on: Candida (Issatchenkia) krusei ATCC6258 - reference strain; type: cell-based
Description: as §1

[5] = tested on: Staphylococcus aureus, strain ATCC 25923; conditions: ATCC 25923
[6] = tested on: Methicillin resistant Staphylococcus epidermidis (MRSE) strain ATCC 27626; conditions: ATCC 27626
[7] = tested on: Methicillin resistant Staphylococcus aureus (MRSA) strain ATCC 33591; conditions: ATCC 33591
S. pyogenes = conditions: Table 5
[8] = tested on: EMRSA3 Staphylococcus aureus (MRSA) - SSCmec type 1; type: cell-based; conditions: EMRSA3 - SSCmec type 1
Excerpt: (§2) Cation-adjusted Mueller-Hinton broth (Oxoid Ltd., Basingstoke, UK and Trek Diagnostic Systems Ltd., East Grinstead, UK) (supplemented with 5% laked horse blood for Streptococcus spp., Corynebacterium jeikeium and Listeria monocytogenes) was used for aerobic bacteria, with an initial inoculum of approximately 10^5 colony-forming units (CFU)/mL.

[9] = tested on: Corynebacterium jeikeium - multi-drug resistant clinical isolate; type: cell-based
Excerpt: as §2

[10] = tested on: EMRSA15 Staphylococcus aureus (MRSA) - SSCmec type 4; type: cell-based; conditions: EMRSA15 - SSCmec type 4
Excerpt: as §2

[11] = tested on: Moraxella catarrhalis - β -lactamase positive clinical isolate; type: cell-based
Excerpt: as §2

[12] = tested on: Staphylococcus epidermidis methicillin-resistant clinical isolate; type: cell-based
Excerpt: as §2

[13] = tested on: Staphylococcus aureus - methicillin-resistant clinical isolate; type: cell-based
Excerpt: as §2

[14] = tested on: Streptococcus bovis - macrolide-resistant clinical isolate; type: cell-based
Excerpt: as §2

[15] = tested on: Moraxella catarrhalis - reduced fluoroquinolone susceptibility clinical isolate; type: cell-based
Excerpt: as §2

[16] = tested on: Pseudomonas aeruginosa - multi-drug resistant clinical isolate; type: cell-based
Excerpt: as §2

[17] = tested on: Staphylococcus saprophyticus - antibiotic susceptible clinical isolate; type: cell-based
Excerpt: as §2

[18] = tested on: Streptococcus agalactiae - antibiotic-susceptible clinical isolate; type: cell-based
Excerpt: as §2

[19] = tested on: Staphylococcus haemolyticus - antibiotic susceptible clinical isolate; type: cell-based
Excerpt: as §2

[20] = tested on: Staphylococcus aureus ATCC 29213 - antibiotic-susceptible control strain; type: cell-based
Excerpt: as §2

[21] = tested on: Enterococcus gallinarum vancomycin-resistant (VanC) clinical isolate; type: cell-based
Excerpt: as §2

[22] = tested on: Corynebacterium jeikeium - antibiotic-susceptible clinical isolate; type: cell-based
Excerpt: as §2

[23] = tested on: Staphylococcus epidermidis antibiotic susceptible clinical isolate; type: cell-based
Excerpt: as §2

[24] = tested on: HT2001254 Staphylococcus aureus (MRSA) - PVL positive; type: cell-based
Excerpt: as §2

[25] = tested on: Staphylococcus aureus ATCC 43300 - methicillin-resistant control strain; type: cell-based
Excerpt: as §2

[26] = tested on: Staphylococcus aureus ATCC 25923 - antibiotic-susceptible control strain; type: cell-based
Excerpt: as §2

C. albicans = conditions: Table 5
P. aeruginosa = conditions: Table 5
[27] = tested on: Staphylococcus aureus FDA486; assay: Murine skin infection model, topical treatment; type: in vivo; conditions: mice; cream or gel containing 2% (w/w); three treatments at three hourly intervals; biopsy three hours after last
Description: (§3) The skin of mice was infected with Staphylococcus aureus or Streptococcus pyogenes and subsequently given a total of three treatments at three hourly intervals. Three hours after the last treatment, skin biopsies were collected and the number of colony forming units (CFUs) present in the skin sample was determined. Results are shown in FIGS. 1 and 2, expressed as the number of colony forming units per mouse.
(§4) The skin of mice was infected with Staphylococcus aureus or Streptococcus pyogenes and subsequently given a total of three treatments at three hourly intervals. Three hours after the last treatment, skin biopsies were collected and the number of colony forming units (CFUs) present in the skin sample was determined. Results are shown in FIGS. 3, 4 and 5 expressed as the number of colony forming units per mouse.

[28] = tested on: Streptococcus pyogenes CS301; assay: Murine skin infection model, topical treatment; type: in vivo; conditions: mice
Description: as §3, §4

E. coli = conditions: Table 5

With `CC(C)NC(=O)[C@H](CCCNC(=N)N)NC(=O)[C@H](Cc1c(C(C)(C)C)[nH]c2c(C(C)(C)C)cc(C(C)(C)C)cc12)NC(=O)[C@@H](N)CCCNC(=N)N` [Compound 7] the MIC [1] was 8 mg/L (≈ 11 µM), the MIC [2] was 4 mg/L (≈ 5.51 µM) and the MIC [3] was 8 mg/L (≈ 11 µM). The MIC [4] was 8 mg/L (≈ 11 µM), the “S. aureus (MIC)” value [5] was under 2 mg/L and the “MRSE (MIC)” value [6] was under 2 mg/L. The “MRSA (MIC)” value [7] was under 2 mg/L, the “S. pyogenes (MIC)” value (S. pyogenes) was under 2 mg/L and the MIC [8] was 8 mg/L (≈ 11 µM). It also gave an MIC [9] of 8 mg/L (≈ 11 µM), an MIC [10] of 8 mg/L (≈ 11 µM) and an MIC [11] of 4 mg/L (≈ 5.51 µM). For the same molecule, the MIC [12] was 4 mg/L (≈ 5.51 µM), the MIC [13] was 8 mg/L (≈ 11 µM) and the MIC [14] was 8 mg/L (≈ 11 µM). It also gave an MIC [15] of 8 mg/L (≈ 11 µM), an MIC [16] of 8 mg/L (≈ 11 µM) and an MIC [17] of 2 mg/L (≈ 2.75 µM). It also gave an MIC [18] of 8 mg/L (≈ 11 µM), an MIC [19] of 4 mg/L (≈ 5.51 µM) and an MIC [20] of 8 mg/L (≈ 11 µM). The MIC [21] was 8 mg/L (≈ 11 µM), the MIC [22] was 8 mg/L (≈ 11 µM) and the MIC [23] was 4 mg/L (≈ 5.51 µM). The MIC [24] was 8 mg/L (≈ 11 µM), the MIC [25] was 8 mg/L (≈ 11 µM) and the MIC [26] was 8 mg/L (≈ 11 µM). For the same molecule, the “C. albicans (MIC)” value (C. albicans) was 25 mg/L, the “P. aeruginosa (MIC)” value (P. aeruginosa) was 7 mg/L and the “number of CFUs in skin biopsy vs placebo” value [27] was “the number of CFUs was reduced”. For the same molecule, the “number of CFUs in skin biopsy vs placebo gel and bactroban” value ([28]; 1% or 2% gel, three treatments at three hourly intervals) was “more effective at reducing the number of CFUs from a Streptococcus pyogenes CS 301 infection than the placebo gel or the bactroban”, the “number of CFUs in skin biopsy, 2% gel compared with 1% gel” value ([28]; 2% gel vs 1% gel) was “more effective than the gel containing only 1% of compound 7” and the “E. coli (MIC)” value (E. coli) was 7 mg/L.
